# Key:
# [1] = Jordan Harbour brown bullhead, wet weight
# Summary of the method: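 Pooled caged-fish and wild carp plasma and water samples; plasma spiked with 13C/deuterated surrogate standards, sonicated in acetonitrile, diluted, cleaned by Oasis HLB SPE; water adjusted to pH 2 then pH 4 with EDTA. Quantified by isotope dilution LC/ESI-MS/MS, positive or negative mode, five instrumental runs.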
# [2] = ref Meador et al. 18; cited from earlier work
# in vivo = settings: for concentration at 21 days: goldfish (Carassius auratus)
# Summary of the method: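 Pooled caged-goldfish plasma, wild-fish plasma (2.3–2.5 g) and water samples were spiked with isotope-labelled surrogates, then extracted (acetonitrile sonication for plasma; pH-adjusted water) and cleaned up by HLB SPE. PPCPs were quantified by LC/ESI-MS/MS using isotope dilution. Non-detects were set to ½ DL when the analyte was detected in ≥2 samples.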
# [3] = cited from earlier work
# [4] = human; converted from µg/mL; ref Schulz et al.[56]; cited from earlier work
# [5] = set-up: method as in Brown et al. 11; settings: ref Brown et al. 11; cited from earlier work
# [6] = Plasma bioaccumulation factor (BAFP), goldfish; assay type: in vivo, goldfish (Carassius auratus); settings: CPM2; water sample of August 2012
# Summary of the method: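 BAFP in goldfish was calculated as plasma concentration (ng/g × 1000) divided by water concentration (ng/L).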
# [7] = set-up: method as in US EPA Chemistry Dashboard; settings: ref US EPA Chemistry Dashboard; cited from earlier work
structure (smiles),measurement,setting,value
Cc1ccc(C)c(OCCCC(C)(C)C(=O)O)c1 [Gemfibrozil],"plasma concentration, JH-BB",[1],< 0.57 ng/g
same,"whole fish concentration, sculpin",[2],< mdl
same,"plasma concentration, CPM1 caged","in vivo; CPM1, 07-2014, pooled plasma, wet weight",0.15 ng/g
same,"plasma concentration, CPM3 caged","in vivo; CPM3, 07-2014, pooled plasma, wet weight",0.15 ng/g
same,concentration at 21 days,"in vivo; in vivo, plasma concentration, JH caged, Jordan Harbour reference site, 07-2014, pooled plasma, wet weight",< 0.3 ng/g
same,concentration at 21 days,"in vivo; plasma, caged goldfish plasma, range of concentrations, Cootes Paradise Marsh, range",0.15 to 0.86 ng/g
same,concentration at 21 days,"in vivo; plasma, plasma concentration, CPM1 caged, CPM1, 07-2014, pooled plasma, wet weight",0.147 ng/g
same,concentration at 21 days,"in vivo; plasma, plasma concentration, CPM2 caged, CPM2, 07-2014, pooled plasma, wet weight",0.146 ng/g
same,concentration at 21 days,"in vivo; plasma, plasma concentration, CPM3 caged, CPM3, 07-2014, pooled plasma, wet weight",0.154 ng/g
same,Salmon (whole body) concentration,"[3]; Table S7, ref Meador et al. (2016)",1.3 ng/g
same,"whole fish concentration, salmon",[3]; ref Meador et al. 18,1.3 ng/g wet weight or ng/mL for plasma
same,"Therapeutic ""normal"" blood-plasma/serum concentration",[4],~25000 ng/mL
same,"plasma concentration, rainbow trout",[5],<8-210 ng/g wet weight or ng/mL for plasma
same,"BAFP, CPM2 goldfish caged",[6],27 L/kg
same,"Cootes carp plasma, range of concentrations","Cootes Paradise Marsh, range",0.16 to 0.83 ng/g
same,"wild goldfish plasma, range of concentrations","Cootes Paradise Marsh, range",0.15–0.15 ng/g
same,"plasma concentration, CPM-C 01","Cootes carp 01, 2011, male, wet weight",0.158 ng/g
same,"plasma concentration, CPM-C 2","Cootes carp 2, Sep 27, 2011, male, wet weight",0.724 ng/g
same,"plasma concentration, CPM-C 10","Cootes carp 10, Sep 28, 2011, female, wet weight",0.227 ng/g
same,"plasma concentration, CPM-C 13","Cootes carp 13, Sep 28, 2011, female, wet weight",0.234 ng/g
same,"plasma concentration, CPM-C 20","Cootes carp 20, 2011, male, wet weight",0.162 ng/g
same,"plasma concentration, CPM-C 36","Cootes carp 36, Oct 3, 2011, female, wet weight",0.827 ng/g
same,"Carp plasma concentration, this study (range)",Table S7,0.16 to 0.83 ng/g
same,"Goldfish plasma concentration, this study (range)",Table S7,0.15 to 0.86 ng/g
same,"plasma concentration, carp, this study (mean)",Table S8,0.39 ng/g wet weight or ng/mL for plasma
same,"plasma concentration, goldfish, this study (mean)",Table S8,0.46 ng/g wet weight or ng/mL for plasma
same,"plasma concentration, CPM wild-01","wild goldfish sample 01, 2012, wet weight",0.147 ng/g
same,"plasma concentration, CPM wild-02","wild goldfish sample 02, 2012, wet weight",0.387 ng/g
same,"plasma concentration, CPM wild-03","wild goldfish sample 03, 2012, wet weight",0.86 ng/g
same,log Kow,[7],4.14

# Reference: article PMC5717258, “Bioaccumulation of pharmaceuticals and personal care product chemicals in fish exposed to wastewater effluent in an urban wetland” (Scientific Reports, 2017)
